# In patent US6337069B1, “Method of treating rhinitis or sinusitis by intranasally administering a peptidase” (B.M.R.A. Corporation B.V., priority 2001, dated 2002):
# Ends that are not written are not given here.
# Assays:
# [1] = tested on: vasodilation evoked by capsaicin; experiment: Capsaicin-evoked vasodilation in pig nasal mucosa in vivo
# Description: Experiments were performed on pigs of both sexes (body weight 18-25 kg). All animals were premedicated with atropine (0.05 mg/kg) and ketamine (20 mg/kg i.m.). They were anesthesized with thiopentone (5 mg/kg i.v.). After tracheostomy, animals were intubated and artificially ventilated by a volume regulated ventilator. During surgery, animals were given a continuous i.v. infusion of Ringer's solution, pancuronium bromide (0.25 mg/kg) and heparin. […] Catheters were placed in the femoral artery for systemic blood pressure and heart rate monitoring and in the femoral vein for thiopentone, heparin and fluid administration (300 ml/hr). The contralateral femoral vein was canulated for blood sampling. […] Selective recording of the nasal arterial blood flow was performed with a Transonic flow probe (probe 2.4RB143) of 2.4 mm diameter placed around the sphenopalatine artery. The flow probe was connected to a T202S ultrasonic blood flowmeter. All the arterial branches situated downstream of the flow probe were ligated and cut except for the superficial temporal artery which was cannulated with a PE 90 catheter for infusions or injections.
# (§2) Variations in the area under the curve (AUC) of the sphenopalatine artery vascular resistance (Vr), derived from both mean arterial blood pressure and systemic blood flow curves, were analyzed over time. Durations of the responses of the vascular resistance were compared and all results were expressed in percent of baseline. Vascular parameters were recorded simultaneously using a 6 pen trace recorder.
# (§3) All animals were intranasally administered DPIV (50 μg, 26.5 pmoles/kg), subjected to sympathetic nerve stimulation (SNS, 15 V, 5 ms, 10 Hz for 2 minutes) and then infused with histamine (0.1-25 μg), capsacin (0.01-25 μg), bradykinin (0.001-10 μg), SP or its C-terminal fragment SP 5-11, DPPIV, or NK1 antagonist L733060 in the superficial temporal artery under controlled conditions. In each case, the vascular response of the animal was measured. This entire procedure was then repeated after local i.a. pretreatment with the alpha-adrenergic receptor antagonist phenoxybenzanime (1 mg/kg).
# [2] = tested on: histamine vasodilatory effects; experiment: Histamine-evoked vasodilation in pig nasal mucosa in vivo; settings: no DPPIV
# Description: (§1) Each experiment lasted approximately 8 hours.
# [3] = tested on: SP-evoked vasodilatory response; experiment: Modulation of SP-evoked vasodilation in pig nasal mucosa in vivo; settings: pretreatment 114 nmoles/kg; all doses of SP used except 100 ng
# Description: Experiments were performed on pigs of both sexes (body weight 18-25 kg). All animals were premedicated with atropine (0.05 mg/kg) and ketamine (20 mg/kg i.m.). They were anesthesized with thiopentone (5 mg/kg i.v.). After tracheostomy, animals were intubated and artificially ventilated by a volume regulated ventilator. During surgery, animals were given a continuous i.v. infusion of Ringer's solution, pancuronium bromide (0.25 mg/kg) and heparin. Each experiment lasted approximately 8 hours. Catheters were placed in the femoral artery for systemic blood pressure and heart rate monitoring and in the femoral vein for thiopentone, heparin and fluid administration (300 ml/hr). The contralateral femoral vein was canulated for blood sampling. […] Selective recording of the nasal arterial blood flow was performed with a Transonic flow probe (probe 2.4RB143) of 2.4 mm diameter placed around the sphenopalatine artery. The flow probe was connected to a T202S ultrasonic blood flowmeter. […]
# Variations in the area under the curve (AUC) of the sphenopalatine artery vascular resistance (Vr), derived from both mean arterial blood pressure and systemic blood flow curves, were analyzed over time. […] Vascular parameters were recorded simultaneously using a 6 pen trace recorder. […]
# [4] = Basal vascular parameters in the anaesthetised pig in vivo (blood flow, heart rate, MAP, vascular resistance)
# Description: as §1
# The basal blood flow in the internal maxillary artery of the pig under control conditions was 4.92+/−0.7 ml min^−1 kg^−1. After section of the sympathetic nerves on the left side, the homolateral nasal arterial flow was 6.1+/−0.26 ml min^−1 kg^−1 (representing a 19.34% +/−4.3% increase). The mean arterial blood pressure (MAP) was not modified by the section of the sympathetic nerves. […] Sympathetic nerve stimulation at 10 Hz for 5 minutes reduced the blood flow in the maxillary artery from 4.92+/−0.7 ml min^−1 kg^−1 to 1.40+/−0.47 ml min^−1 kg^−1, representing an […] of 71.5% and lasting more than 6 minutes. The i.a. infusion of phenoxybenzamine induced a MAP reduction of 10+/−2%.
# [5] = tested on: sphenopalatine vascular resistance; experiment: Vasodilator dose-response of SP and SP 5-11 in pig in vivo; settings: for reduction in SVR: before DPPIV
# Description: Experiments were performed on pigs of both sexes (body weight 18-25 kg). All animals were premedicated with atropine (0.05 mg/kg) and ketamine (20 mg/kg i.m.). They were anesthesized with thiopentone (5 mg/kg i.v.). After tracheostomy, animals were intubated and artificially ventilated by a volume regulated ventilator. During surgery, animals were given a continuous i.v. infusion of Ringer's solution, pancuronium bromide (0.25 mg/kg) and heparin. Each experiment lasted approximately 8 hours. Catheters were placed in the femoral artery for systemic blood pressure and heart rate monitoring and in the femoral vein for thiopentone, heparin and fluid administration (300 ml/hr). The contralateral femoral vein was canulated for blood sampling. Surgical preparation of the internal maxillary artery was done in accordance with Lacroix (Acta Physiol. Scand. 136:1-63 (1989)). Selective recording of the nasal arterial blood flow was performed with a Transonic flow probe (probe 2.4RB143) of 2.4 mm diameter placed around the sphenopalatine artery. The flow probe was connected to a T202S ultrasonic blood flowmeter. All the arterial branches situated downstream of the flow probe were ligated and cut except for the superficial temporal artery which was cannulated with a PE 90 catheter for infusions or injections.
# as §2, §3
# Therefore, the same animal was used to perform dose-response curves with SP both before and after pretreatment with DPPIV. A dose-response curve for duration of vasodilation and area under the curve was constructed using doses of SP in the range of 1 pg to 0.1 μg. […] The same animals received 50 μg (530 pmoles) of DPPIV and similar doses of SP were injected. […] Since DPPIV cleaves SP into SP 5-11, experiments were conducted to determine whether SP 5-11 is also capable of decreasing SVR.
# [6] = SNS and PBZ pretreatment, no DPPIV, capsaicin 8.2×10^−08 moles
molecule,measurement,setting,value
"COc1cc(CNC(=O)CCCCC=CC(C)C)ccc1O [Capsaicin, 8-methyl-N-vanillyl-6-nonenamide]",effect of capsaicin injection on Vr,"[1]; following SNS, similar to control conditions",dose-dependent decrease of Vr
NCCc1c[nH]cn1 [Histamine],reduction in duration of histamine effect vs control,[2]; histamine i.a. 1.4×10^−07 moles following SNS 10 Hz 5 minutes,32%
same,reduction in duration of histamine effect vs control,[2]; histamine i.a. 5.4×10^−09 moles following SNS 10 Hz 5 minutes,33%
FC(F)(F)c1cc(CO[C@H]2CCCN[C@H]2c2ccccc2)cc(C(F)(F)F)c1 [L-733060],blockade of SP-induced decrease in SVR,[3],clear inhibition of the SP effect
same,vascular effect of the antagonist,[4]; pretreatment with 114 nmoles/kg,vasoconstrictive effect
CC(COc1ccccc1)N(CCCl)Cc1ccccc1 (centres unmarked) [phenoxybenzamine],reduction of AUC of capsaicin effect,[1]; [6],26.6%
same,reduction of duration of vasodilation evoked by capsaicin,[1]; [6],39.9%
same,variation of vasodilatory effect of capsaicin,"[1]; after SNS and PBZ pretreatment, any doses, no DPPIV",no significant variation
same,MAP reduction,[4]; i.a. infusion of phenoxybenzamine,10+/−2%
"SP 5-11: C-terminal fragment of SP produced by DPPIV cleavage (QQFFGLM; ends and bridges not checked; UniProt P20366 62-68, looked up, fragment)",decrease in SVR,[5]; SP 5-11 10 pg,5%
same,decrease in SVR,[5]; SP 5-11 1 μg,35%
same,SP 5-11 less potent than SP at causing vasodilation,"[5]; pig, in vivo",at least 100 fold
"SP: substance P, bioactive peptide released by sensory neurons; NK1 agonist",reduction in SVR,[5]; SP 100 pg,13.1%
same,reduction in SVR,[5]; SP 1 ng,14.9%
same,potency of SP relative to SP 5-11 as a vasodilator,[5]; based on molarity,200 fold
same,vasodilation,[5]; local intraarterial administration of 1 pg SP,15.1% +/−3.3%
same,vasodilation,[5]; local intraarterial administration of 100 ng SP,37.3% +/−3.3%
